Laboratory results taken from PubChem BioAssay (NCI).
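These data come from cells grown in 96-well plates and exposed to compound for 48 hours at five concentrations. GI50 marks 50% less growth. TGI marks complete inhibition of growth.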

Assays:
Experiment in all cases: DTP human tumour cell line panel, 48 h
[1] = tested on: HOP-92 NSCLC
[2] = tested on: MDA-MB-435
[3] = tested on: HOP-62 NSCLC
[4] = tested on: ACHN renal
[5] = tested on: NCI-H460 lung
[6] = tested on: EKVX NSCLC
[7] = tested on: IGROV1 ovarian
[8] = tested on: SF-295 CNS
[9] = tested on: SW-620 colon
[10] = tested on: NCI-H522 lung
[11] = tested on: OVCAR-5 ovarian
[12] = tested on: CAKI-1 renal
[13] = tested on: OVCAR-4 ovarian
[14] = tested on: MCF7 breast
[15] = tested on: UACC-62 melanoma
[16] = tested on: A498 renal
[17] = tested on: LOX IMVI melanoma
[18] = tested on: 786-0 renal
[19] = tested on: SK-MEL-28 melanoma
[20] = tested on: PC-3 prostate
[21] = tested on: SK-MEL-5 melanoma
[22] = tested on: T-47D breast
[23] = tested on: SN12C renal
[24] = tested on: U251 CNS
[25] = tested on: SF-539 CNS
[26] = tested on: SK-OV-3 ovarian
[27] = tested on: MALME-3M melanoma
[28] = tested on: CCRF-CEM leukemia
[29] = tested on: HT29 colon

Compound: CS(=O)(=O)c1nccc(-c2c(-c3ccc(F)c(OCc4ccc(F)cc4)c3)nc3sccn23)n1
- TGI [1]: 21.5 µM
- GI50 [2]: 16.5 µM
- TGI [2]: 31 µM
- GI50 [3]: 16.2 µM
- TGI [3]: 30.9 µM
- GI50 [4]: 16.6 µM
- TGI [4]: 30.9 µM
- GI50 [5]: 13.5 µM
- TGI [5]: 27.4 µM
- GI50 [6]: 15.6 µM
- TGI [6]: 29.1 µM
- GI50 [7]: 15.5 µM
- TGI [7]: 31.8 µM
- GI50 [8]: 23 µM
- TGI [8]: 52 µM
- GI50 [9]: 16.1 µM
- TGI [9]: 31.8 µM
- GI50 [10]: 13.4 µM
- TGI [10]: 30.3 µM
- GI50 [11]: 67.6 µM
- TGI [11]: > 100 µM
- GI50 [12]: 14.8 µM
- TGI [12]: 28 µM
- GI50 [13]: 17.8 µM
- TGI [13]: 44.6 µM
- GI50 [14]: 5.69 µM
- TGI [14]: 22.2 µM
- GI50 [15]: 16.3 µM
- TGI [15]: 34.2 µM
- GI50 [16]: 13 µM
- TGI [16]: 26 µM
- GI50 [17]: 10.2 µM
- TGI [17]: 24.5 µM
- GI50 [18]: 20.9 µM
- TGI [18]: 53.3 µM
- GI50 [19]: 16.1 µM
- TGI [19]: 29.8 µM
- GI50 [20]: 17.2 µM
- TGI [20]: 34.9 µM
- GI50 [21]: 17.4 µM
- TGI [21]: 33.1 µM
- GI50 [22]: 11.1 µM
- TGI [22]: 26.2 µM
- GI50 [23]: 23.7 µM
- TGI [23]: > 100 µM
- GI50 [24]: 17.8 µM
- TGI [24]: 37.9 µM
- GI50 [25]: 17.8 µM
- TGI [25]: 36.7 µM
- GI50 [26]: 93.6 µM
- TGI [26]: > 100 µM
- GI50 [27]: 24.5 µM
- TGI [27]: 71 µM
- GI50 [28]: 3.38 µM
- TGI [28]: 13.1 µM
- GI50 [29]: 21.6 µM
- TGI [29]: 61.6 µM
